Test results taken from US11203613B2, “Peptidomimetic proteasome inhibitors” (CORNELL UNIVERSITY, priority 2017, dated 2021).
Values joined by “and” are separate entries in the source; they are usually repeats but may differ in a detail not shown here. Equal entries are not always repeated. Where two headings read alike, the source gives them in different places.

Tests used:
[1] = target: Human Constitutive (Hu C-20S) β5 Active Subunit (Homo sapiens, UniProt P28074); assay: IC50 determination, human constitutive 20S proteasome β5c (suc-LLVY-AMC hydrolysis); assay type: biochemical; settings: Table 2; several values in a cell are repeat determinations; read-out: Hu c-20S IC50
Mtb20SOG = Mtb20SOG (Mycobacterium tuberculosis, UniProt P9WHT9); assay: biochemical
Sequence of Mtb20SOG (P9WHT9 58-291): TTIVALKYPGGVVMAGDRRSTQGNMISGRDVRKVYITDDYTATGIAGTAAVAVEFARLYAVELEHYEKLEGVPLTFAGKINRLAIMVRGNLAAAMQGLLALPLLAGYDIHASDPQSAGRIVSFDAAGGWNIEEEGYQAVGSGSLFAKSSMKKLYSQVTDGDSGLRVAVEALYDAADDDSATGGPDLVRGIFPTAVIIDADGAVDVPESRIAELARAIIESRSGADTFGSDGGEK

[2] = Table 2, several values in a cell are repeat determinations

What does the source list for Cc1cc(C(=O)N[C@@H](CC(=O)N2CCCC[C@@H]2C)C(=O)N[C@@H](C)c2ncc(Cc3ccccc3)[nH]2)no1 [CF-503133]?
IC50 [1]: 5.59 µM and 7.08 µM; IC50 (Mtb20SOG; [2]): 0.266 µM and 0.231 µM

CCN(CC)C(=O)C[C@H](NC(=O)CCC(C)C)C(=O)N[C@@H](C)c1nc(-c2ccc(F)cc2F)c[nH]1 [CF-503197] was tested. Which IC50 [1] did it give?
Its IC50 is 7.28 µM.

And the IC50 (Mtb20SOG)?
Its IC50 is 1.11 µM.

How did the IC50 [1] turn out when C[C@H](NC(=O)[C@H](CC(=O)N1CCC[C@@H]1C)NC(=O)CCC(C)(C)C)c1ncc(-c2ccc(F)cc2F)[nH]1 [CF-503162] was run?
Its IC50 is 6.3 µM and 5.7 µM.

What about the IC50 (Mtb20SOG; [2]) of the same compound?
The IC50 was 0.173 µM and 0.128 µM.

CC(C)CCC(=O)N[C@@H](CC(=O)N1CCCC[C@@H]1C)C(=O)N[C@H](C)c1nc2ccccc2[nH]1 [CF-503192] was tested. Which IC50 [1] did it give?
Its IC50 is 15.6 µM.

And the IC50 (Mtb20SOG; [2])?
Its IC50 is 4.9 µM.

For C[C@@H](NC(=O)[C@H](CC(=O)N1CCC[C@@H]1C)NC(=O)CCC(C)(C)C)c1nc2ccccc2[nH]1 [CF-503190], which IC50 [1] is on record?
Its IC50 is 17.3 µM.

What about the IC50 (Mtb20SOG) of the same compound?
Its IC50 is 2.66 µM.
